This is an account of results in PMC6150295, “Synthesis and Biological Evaluation of 2H-Indazole Derivatives: Towards Antimicrobial and Anti-Inflammatory Dual Agents” (Molecules : A Journal of Synthetic Chemistry and Natural …, 2017).

Molecules are shown by their SMILES.

The term IC50 denotes the concentration needed to halve the response being measured. One may read the viability as a read-out of living cells in per cent, often relative to untreated cells. What is called melting point is the temperature of the solid-liquid transition.

The first data set has as its system HaCaT cells. Kind of data set: Cytotoxicity MTT assay. The class given is cell-based, human. The following applies: Homo sapiens, HaCaT, 48 h exposure. The procedure: (§1) Biological assays on HaCaT and HeLa cell lines were conducted to gain insight into the cytotoxic effects of these derivatives on human cells, as compared with the effects observed on protozoa. Cellular viability was determined by MTT (3-(4,5-dimethylthiazol-2-yl)-2,5-diphenyltetrazolium bromide) assay. Compounds 18 and 23 were chosen considering their antiprotozoal and anticandidal effect, in addition to their COX-2 inhibitory activity. Additionally, compound 16 was considered as an unsubstituted reference.
(§2) HeLa (human cervical carcinoma) and HaCaT (immortalized human keratinocytes) cells were grown in DMEM (Invitrogen Corporation, Carlsbad, CA, USA) supplemented with 10% FBS (BioWest, Riverside, MO, USA), and maintained in standard culture conditions (37 °C, 95% humidity, and 5% CO2). Cells were allowed to grow to a density of 80% and then were harvested using sterile PBS/EDTA (pH 7.4) before starting every experiment. Cells were seeded in 96-well plates (7000 cells/well in 200 µL of DMEM). After 24 h the cells were exposed to test compounds dissolved in DMSO (J.T. Baker, Phillipsburg, NJ, USA) at different concentrations and diluted in 50 µL of DMEM, to reach 250 µL in the well. The exposure time was 48 h, and then viability was determined by MTT assay. The absorbance of formazan was determined for each well and its viability was related to the vehicle (100%). The IC50 was calculated from dose-response curve by non-linear fit using OriginPro 7.0 software (RockWare, Golden, CO, USA).
(Formazan colour is commonly taken as a measure of viable cells.)
`c1ccc(-c2c3ccccc3nn2-c2ccccc2)cc1` [Compound 16, 2,3-Diphenyl-2H-indazole] displayed an IC50 of 93.7 ± 17.3 µM.

Tested on in the next data set: not listed separately
Kind of data set: Cytotoxicity MTT assay. The following applies: human, 10 µM, 48 h exposure, read-out: % Viability (10 µM) HaCaT Cells. Format: cell-based, human. The procedure:
as §1, §2
As to `c1ccc(-c2c3ccccc3nn2-c2ccccc2)cc1` [Compound 16, 2,3-Diphenyl-2H-indazole], the viability at 48 h, 10 µM came out at 95 ± 2.44%.

The same data set, now with this note: human, 10 µM, 48 h exposure, read-out: % Viability (10 µM) HeLa Cells.
For the compound `c1ccc(-c2c3ccccc3nn2-c2ccccc2)cc1` [Compound 16, 2,3-Diphenyl-2H-indazole], the viability at 48 h, 10 µM was found to be 93 ± 4.57%.

In another data set the test system is HeLa cells. Put plainly: Cytotoxicity MTT assay. Format: cell-based, human. The following applies: Homo sapiens, 48 h exposure. The procedure: as §1, §2
As to `c1ccc(-c2c3ccccc3nn2-c2ccccc2)cc1` [Compound 16, 2,3-Diphenyl-2H-indazole], 125 ± 29.6 µM corresponded to half-maximal inhibition (IC50).

The next data set concerns Candida glabrata. Kind of data set: Disk diffusion susceptibility test. Also: key: -: No inhibition; +: Positive inhibition (zone of inhibition mm). The class given is cell-based. The following applies: 5 mg per disc, 37 °C, 24 h. For orientation: A growth-free zone around the sample is the usual read-out of agar diffusion tests.
For the compound `c1ccc(-c2c3ccccc3nn2-c2ccccc2)cc1` [Compound 16, 2,3-Diphenyl-2H-indazole], the “Inhibition (positive / none) C. glabrata” value is on record as “-”.

A further data set deals with Giardia intestinalis isolate IMSS:0981:1. Kind of data set: In vitro antiprotozoal assay (trophozoite subculture method). Format: cell-based. The following applies: 16 relative to 7; 20 compared to 13. The procedure:
(§3) The in vitro antiprotozoal assays against E. histolytica, G. intestinalis, and T. vaginalis of the 2-phenyl-2H-indazole and 2,3-diphenyl-2H-indazole derivatives were carried out following the method previously described. Metronidazole (MTZ) and albendazole (ABZ) were used as reference drugs. […] Similarly, compound 7, having a phenyl at position 2, has good activity against the three protozoa, ranking third in activity for T. vaginalis and forth against G. intestinalis and E. histolytica. […] These derivatives had groups H, COOCH3, Cl, and SO2CH3 at positions 2 and 3, substituents that induced the best response in 2-phenyl-2H-indazole derivatives. In addition, carboxylic acids 20 and 25 were of interest for comparative purposes with ester derivatives.
(§4) Trichomonas vaginalis strain GT3, Giardia intestinalis isolate IMSS:0981:1, and Entamoeba histolytica strain HM1-IMSS were used. Trophozoites of G. intestinalis were maintained in a TYI-S-33 medium supplemented with 10% calf serum and bovine bile. E. histolytica and T. vaginalis trophozoites were maintained in TYI-S-33 medium supplemented with 10% bovine serum. Briefly, 5 × 10^4 trophozoites of G. intestinalis or T. vaginalis, or 6 × 10^3 trophozoites of E. histolytica were incubated for 48 h at 37 °C with different concentrations of the compound to be tested, each added as solutions in DMSO. As a negative control, parasite cultures received an equivalent amount of DMSO only, while albendazole and metronidazole were included as positive controls. At the end of the treatment period, the cells were washed and subcultured for another 48 h in a fresh medium to which no drug was added. […] Experiments were carried out in triplicate and repeated at least twice.
As to `c1ccc(-c2c3ccccc3nn2-c2ccccc2)cc1` [Compound 16, 2,3-Diphenyl-2H-indazole], the “improvement in potency against G. intestinalis relative to the analog” value is listed as “two-fold”.

The same data set, now with this note: Giardia duodenalis; trophozoites, 48 h with compound then 48 h subculture without drug; read-out: IC50 (µM) G. intestinalis.
For the compound `c1ccc(-c2c3ccccc3nn2-c2ccccc2)cc1` [Compound 16, 2,3-Diphenyl-2H-indazole], the IC50 was 0.0518 ± 0.0052 µM.

Another data set has as its system Entamoeba histolytica strain HM1-IMSS. The description is as above. Format: cell-based. The following applies: Entamoeba histolytica; trophozoites, 48 h with compound then 48 h subculture without drug; read-out: IC50 (µM) E. histolytica. The method, then:
as §3, §4
For `c1ccc(-c2c3ccccc3nn2-c2ccccc2)cc1` [Compound 16, 2,3-Diphenyl-2H-indazole], the IC50 is 0.303 ± 0.0105 µM.

The subject of another data set is Trichomonas vaginalis strain GT3. The description is as above. The class given is cell-based. The following applies: 16 relative to 7; 20 compared to 13. The procedure:
as §3, §4
In the case of `c1ccc(-c2c3ccccc3nn2-c2ccccc2)cc1` [Compound 16, 2,3-Diphenyl-2H-indazole], the “improvement in potency against T. vaginalis relative to the analog” value is recorded as “two-fold”.

Still in this data set, the particulars now being: Trichomonas vaginalis, GT3; trophozoites, 48 h with compound then 48 h subculture without drug; read-out: IC50 (µM) T. vaginalis.
Consider `c1ccc(-c2c3ccccc3nn2-c2ccccc2)cc1` [Compound 16, 2,3-Diphenyl-2H-indazole], for which the IC50 worked out at 0.0573 ± 0.0026 µM.

In the next data set the test system is Candida albicans. Put plainly: Disk diffusion susceptibility test. Also: key: -: No inhibition; +: Positive inhibition (zone of inhibition mm). The following applies: 5 mg per disc, 37 °C, 24 h. The class given is cell-based.
Regarding `c1ccc(-c2c3ccccc3nn2-c2ccccc2)cc1` [Compound 16, 2,3-Diphenyl-2H-indazole], the “Inhibition (positive / none) C. albicans” value is listed as “-”.

Tested on in a further data set: not given
Test: not given
Settings: not given
`c1ccc(-c2c3ccccc3nn2-c2ccccc2)cc1` [Compound 16, 2,3-Diphenyl-2H-indazole] showed a melting point of 107.4 to 107.9 °C.

For another data set, the system named is Salmonella enterica serovar Typhi. Put plainly: Disk diffusion susceptibility test. Also: key: -: No inhibition; +: Positive inhibition (zone of inhibition mm). Format: cell-based. The following applies: 5 mg per disc, 37 °C, 24 h.
As to `c1ccc(-c2c3ccccc3nn2-c2ccccc2)cc1` [Compound 16, 2,3-Diphenyl-2H-indazole], the “Inhibition (positive / none) S. Typhi” value is recorded as “-”.

A further data set deals with T1, human recombinant cyclooxygenase-2 (Homo sapiens, UniProt P35354).
T1 construct: purchased Cayman Chemical 560131
T1 sequence (P35354 18-604): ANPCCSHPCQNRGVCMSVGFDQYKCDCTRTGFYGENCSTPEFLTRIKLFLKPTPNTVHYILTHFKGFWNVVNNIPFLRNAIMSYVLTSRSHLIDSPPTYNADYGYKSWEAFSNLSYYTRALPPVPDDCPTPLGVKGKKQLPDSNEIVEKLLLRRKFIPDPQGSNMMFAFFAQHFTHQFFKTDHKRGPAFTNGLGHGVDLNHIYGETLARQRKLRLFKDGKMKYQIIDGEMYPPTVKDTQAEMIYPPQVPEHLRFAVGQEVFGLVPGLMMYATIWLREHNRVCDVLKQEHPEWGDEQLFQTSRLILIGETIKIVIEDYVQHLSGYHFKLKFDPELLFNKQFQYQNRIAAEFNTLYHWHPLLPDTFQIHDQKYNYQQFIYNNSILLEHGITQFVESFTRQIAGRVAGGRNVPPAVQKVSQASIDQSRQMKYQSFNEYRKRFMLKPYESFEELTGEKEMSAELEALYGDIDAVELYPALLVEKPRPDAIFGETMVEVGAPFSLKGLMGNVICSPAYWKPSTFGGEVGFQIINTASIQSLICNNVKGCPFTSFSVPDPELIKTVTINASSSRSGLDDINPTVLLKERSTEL
Put plainly: COX inhibitor screening assay (Cayman kit). The following applies: tested at 10 µM. Format: biochemical. The procedure: Additionally, molecular docking studies using AutoDock Vina software (TSRI, La Jolla, CA, USA) were performed to aid in the interpretation of the experimental results. […] Nevertheless, these compounds represent an interesting starting point towards the design of new antiparasitic compounds with an additional COX-2 inhibitory property.
Assays were carried out by duplicate following the instructions provided by the manufacturer.
As to `c1ccc(-c2c3ccccc3nn2-c2ccccc2)cc1` [Compound 16, 2,3-Diphenyl-2H-indazole], the “% of Inhibition of COX-2” value was “Inactive”.

A further data set concerns Escherichia coli strain EDL933 (EHEC). Kind of data set: Disk diffusion susceptibility test. Also: key: -: No inhibition; +: Positive inhibition (zone of inhibition mm). Format: cell-based. The following applies: 5 mg per disc, 37 °C, 24 h.
On to `c1ccc(-c2c3ccccc3nn2-c2ccccc2)cc1` [Compound 16, 2,3-Diphenyl-2H-indazole], for which the “Inhibition (positive / none) E. coli 933” value is given as “-”.

A further data set deals with Escherichia coli strain 042 (EAEC). Put plainly: Disk diffusion susceptibility test. Also: key: -: No inhibition; +: Positive inhibition (zone of inhibition mm). The following applies: 5 mg per disc, 37 °C, 24 h. Format: cell-based.
For `c1ccc(-c2c3ccccc3nn2-c2ccccc2)cc1` [Compound 16, 2,3-Diphenyl-2H-indazole], the “Inhibition (positive / none) E. coli 042” value is “-”.
